The target of assay [1] is T1, H3R membranes (H3R8-expressing HEK293 cell line) (Homo sapiens, UniProt Q9Y5N1).
T1 construct: expressed in transfected cells
The experiment in a line: [35S] GTP γ[S] binding assay, antagonist activity in the presence of agonist R(−)alpha methylhistamine. The assay is classed as biochemical. Particulars: results given below the [35S]GTPγS assay. The method, then:
Membranes isolated as described in (Preparation of Histamine Receptor Subtype Membranes) were used in a [35S]GTPχS functional assay. Binding of [35S]GTPχS to membranes indicates agonist activity. Compounds of the invention of Formula I or II or III were tested for their ability to inhibit binding in the presence of agonists. Alternately, the same transfected cell lines were used for a cAMP assay wherein H3R agonists inhibited forskolin-activated synthesis of cAMP. Compounds of Formula I or II or III were tested for their ability to permit forskolin-stimulated cAMP synthesis in the presence of agonist.
cDNA for the human histamine 3 receptor was cloned and expressed as described in (A. Preparation H1R membranes), above. Transfected cells were selected using G418 ([…]), grown, and tested for histamine binding by the SPA described above. For total binding, cells were assayed in a SPA reaction described above containing 50 mM Tris-HCL (assay buffer), pH 7.6, 1 mg wheat germ agglutinin SPA beads (Amersham Pharmacia Biotech, #RPNQ0001), and 1 nM (3H)-n-alpha-methylhistamine (NEN, NET1027) (total volume per well=200 μl). Thioperimide was added to determine non-specific binding. […]
Antagonist activity of selected compounds was tested for inhibition of [35S] […] Plates were counted in Wallac Trilux 1450 Microbeta scintillation counter for 1 minute. […]

The target in assay [2] is T2, H3R (human histamine 3 receptor) (Homo sapiens, UniProt Q9Y5N1).
T2 construct: expressed in transfected cells
T2 sequence (Q9Y5N1 whole entry): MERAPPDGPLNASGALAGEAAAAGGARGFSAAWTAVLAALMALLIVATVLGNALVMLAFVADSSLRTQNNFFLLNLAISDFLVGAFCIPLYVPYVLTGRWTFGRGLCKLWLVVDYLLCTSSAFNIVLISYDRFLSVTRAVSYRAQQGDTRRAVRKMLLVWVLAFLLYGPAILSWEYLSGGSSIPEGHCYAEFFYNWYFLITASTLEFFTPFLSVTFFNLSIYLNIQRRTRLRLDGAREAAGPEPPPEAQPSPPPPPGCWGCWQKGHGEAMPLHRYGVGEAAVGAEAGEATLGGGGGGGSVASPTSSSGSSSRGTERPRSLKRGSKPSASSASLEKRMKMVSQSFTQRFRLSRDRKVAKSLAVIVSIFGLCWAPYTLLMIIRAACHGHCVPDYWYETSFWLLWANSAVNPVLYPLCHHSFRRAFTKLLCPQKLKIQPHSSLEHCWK
Description: competitive inhibition SPA binding assay, H3R, (3H)-n-alpha-methylhistamine. As to conditions: selectivity panel. From the text: The inventive compounds can readily be evaluated by using a competitive inhibition Scintillation Proximity Assay (SPA) based on a H3R binding assay using [3H] α methylhistamine as ligand. Stable cell lines, including but not limited to HEK can be transfected with cDNA coding for H3R to prepare membranes used for the binding assay. The technique is illustrated below (Preparation of Histamine Receptor Subtype Membranes) for the histamine receptor subtypes.
cDNA for the human histamine 3 receptor was cloned and expressed as described in (A. Preparation H1R membranes), above. Transfected cells were selected using G418 ([…]), grown, and tested for histamine binding by the SPA described above. For total binding, cells were assayed in a SPA reaction described above containing 50 mM Tris-HCL (assay buffer), pH 7.6, 1 mg wheat germ agglutinin SPA beads (Amersham Pharmacia Biotech, #RPNQ0001), and 1 nM (3H)-n-alpha-methylhistamine (NEN, NET1027) (total volume per well=200 μl). Thioperimide was added to determine non-specific binding. Several clones were selected as positive for binding, and a single clone (H3R8) was used to prepare membranes for binding studies described above. Five micrograms of protein was used per well in the SPA receptor-binding assay.
To investigate the selectivity of the antagonists for the histamine receptors, a competitive binding assay described above was performed. […]

The target in assay [3] is T3, H4R (human GPRv53 receptor) (Homo sapiens, UniProt Q9H3N8).
T3 construct: expressed in transfected cells; host or cells: HEK293 GPRv53 50 cells (whole-cell homogenate/lysate)
T3 sequence (Q9H3N8 whole entry): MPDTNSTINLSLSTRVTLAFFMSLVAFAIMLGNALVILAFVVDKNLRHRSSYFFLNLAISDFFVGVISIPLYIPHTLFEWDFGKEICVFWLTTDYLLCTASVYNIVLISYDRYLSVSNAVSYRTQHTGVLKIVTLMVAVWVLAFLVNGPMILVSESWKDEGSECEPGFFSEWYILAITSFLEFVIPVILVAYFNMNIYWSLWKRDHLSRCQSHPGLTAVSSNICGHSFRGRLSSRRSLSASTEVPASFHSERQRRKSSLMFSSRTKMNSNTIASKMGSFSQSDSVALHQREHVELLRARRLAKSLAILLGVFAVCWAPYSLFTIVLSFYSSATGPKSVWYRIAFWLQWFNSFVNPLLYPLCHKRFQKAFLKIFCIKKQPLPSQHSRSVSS
The experiment in a line: competitive binding assay, GPRv53 (H4R), (3H) Histamine. The method, then:
cDNA for the human GPRv53 receptor was cloned and expressed as described in (A. Preparation H1R membranes), above. Transfected cells were selected, tested for histamine binding, and selected. HEK293 GPRv53 50 cells were grown to confluency in DMEM/F12 (Gibco) supplemented with 5% FBS and 500 ug/ml G418 and washed with Delbecco's PBS (Gibco) and harvested by scraping. Whole cells were homogenized with a Polytron tissuemizer in binding buffer, 50 mM Tris pH 7.5. Cell lysates, 50 ug, were incubated in 96 well dishes with 3 nM (3H) Histamine and compounds in binding buffer for 2 hours at room temperature. Lysates were filtered through glass fiber filters (Perkin Elmer) with a Tomtec cell harvester. Filters were counted with melt-on scintillator sheets (Perkin Elmer) in a Wallac Trilux 1450 Microbeta Scintillation counter for 5 minutes.
(§1) To investigate the selectivity of the antagonists for the histamine receptors, a competitive binding assay described above was performed. […] Until the present invention, most known H3R antagonists also bound H4R.

The target in assay [4] is T4, H1R (human histamine 1 receptor) (Homo sapiens, UniProt P35367).
T4 construct: expressed in transfected cells
T4 sequence (P35367 whole entry): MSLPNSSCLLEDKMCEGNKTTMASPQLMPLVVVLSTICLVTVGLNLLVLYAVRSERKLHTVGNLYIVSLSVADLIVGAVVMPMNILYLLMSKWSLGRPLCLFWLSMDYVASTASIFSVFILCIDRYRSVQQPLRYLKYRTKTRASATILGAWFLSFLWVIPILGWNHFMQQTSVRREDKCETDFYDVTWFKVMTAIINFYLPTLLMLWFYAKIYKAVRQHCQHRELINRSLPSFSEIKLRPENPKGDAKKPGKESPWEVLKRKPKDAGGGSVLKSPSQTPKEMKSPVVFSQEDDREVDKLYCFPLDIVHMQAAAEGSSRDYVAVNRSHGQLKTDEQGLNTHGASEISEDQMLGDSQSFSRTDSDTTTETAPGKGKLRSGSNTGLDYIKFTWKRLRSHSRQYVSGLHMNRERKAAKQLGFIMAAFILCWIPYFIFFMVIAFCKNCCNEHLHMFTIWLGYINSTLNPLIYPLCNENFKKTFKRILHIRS
Description: competitive SPA binding assay, H1R, 3H-pyrilamine. As to conditions: selectivity panel. The method, then:
cDNA for the human histamine 1 receptor (H1R) was cloned into a mammalian expression vector containing the CMV promoter (pcDNA3.1(+), Invitogen) and transfected into HEK293 cells using the FuGENE Tranfection Reagent (Roche Diagnostics Corporation). Transfected cells were selected using G418 (500 μ/ml). Colonies that survived selection were grown and tested for histamine binding to cells grown in 96-well dishes using a scintillation proximity assay (SPA) based radioligand binding assay. Briefly, cells, representing individual selected clones, were grown as confluent monolayers in 96-well dishes (Costar Clear Bottom Plates, #3632) by seeding wells with 25,000 cells and growing for 48 hours (37° C., 5% CO2). Growth media was removed and wells were rinsed two times with PBS (minus Ca^2+ or Mg^2+). For total binding, cells were assayed in a SPA reaction containing 50 mM Tris-HCL (assay buffer), pH 7.6, 1 mg wheat germ agglutinin SPA beads (Amersham Pharmacia Biotech, #RPNQ0001), and 0.8 nM ^3H-pyrilamine (Net-594, NEN) (total volume per well ˜200 μl). Astemizole (10 μM, Sigma #A6424) was added to appropriate wells to determine non-specific binding. Plates were covered with FasCal and incubated at room temperature for 120 minutes. […] Plates were counted in a Wallac Trilux 1450 Microbeta scintillation counter. […]

Assay [5] concerns the target T5, H2 (human histamine 2 receptor) (Homo sapiens, UniProt P25021).
T5 construct: expressed in transfected cells
Description: competitive SPA binding assay, H2R, 3H-tiotidine. As to conditions: selectivity panel. As for the experimental part:
cDNA for the human histamine 2 receptor was cloned, expressed and transfected into HEK 293 cells as described above. Histamine binding to cells was assayed by SPA described above. For total binding, cells were assayed in a SPA reaction containing 50 mM Tris-HCl (assay buffer), pH 7.6, 1 mg wheat germ agglutinin SPA beads (Amersham Pharmacia Biotech, #RPNQ0001), and 6.2 nM ^3H-tiotidine (Net-688, NEN) (total volume per well=200 μl). Cimetidine (10 μM, Sigma #C4522) was added to appropriate wells to determine non-specific binding.
Several clones were selected as positive for binding, and a single clone (H2R10) was used to prepare membranes for binding studies. Five micrograms of protein was used per well in the SPA receptor-binding assay.
as §1

Molecules are shown by their SMILES.

T1 sequence (Q9Y5N1 whole entry): as the sequence (Q9Y5N1 whole entry) above
T5 sequence (P25021 whole entry): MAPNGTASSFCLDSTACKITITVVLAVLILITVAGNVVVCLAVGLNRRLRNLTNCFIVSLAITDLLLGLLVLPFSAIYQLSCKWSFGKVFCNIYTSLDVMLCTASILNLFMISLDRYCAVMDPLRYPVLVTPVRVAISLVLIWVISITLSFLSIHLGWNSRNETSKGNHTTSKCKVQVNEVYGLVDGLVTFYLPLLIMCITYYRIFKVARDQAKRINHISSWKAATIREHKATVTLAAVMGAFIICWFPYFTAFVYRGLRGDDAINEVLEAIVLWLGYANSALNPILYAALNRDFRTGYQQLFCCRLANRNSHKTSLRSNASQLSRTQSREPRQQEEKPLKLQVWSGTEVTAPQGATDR

For `O=C(c1ccc2c(c1)CCC(N1CCCC1)C2)N1CCC[C@H]1CN1CCCC1` (mixture of isomers) [Example 3, (2-Pyrrolidin-1-ylmethyl-pyrrolidin-1-yl)-(6-pyrrolidin-1-yl-5,6,7,8-tetrahydro-naphthalen-2-yl)-methanone], the Ki in assay [1] was 1.5 nM.
On the same count and under the same terms, to `O=C(c1ccc2c(c1)CCC(N1CCOCC1)C2)N1CCC[C@H]1CN1CCCC1` (mixture of isomers) [Example 6, (6-Morpholin-4-yl-5,6,7,8-tetrahydro-naphthalen-2-yl)-(2-pyrrolidin-1-ylmethyl-pyrrolidin-1-yl)-methanone] belongs 7.8 nM.
In the case of `O=C(c1ccc2c(c1)CCCC2)N1CCC[C@H]1CN1CCCC1` [Example 15, (S)-(2-Pyrrolidin-1-ylmethyl-pyrrolidin-1-yl)-(5,6,7,8-tetrahydro-naphthalen-2-yl)-methanone], the inhibition constant (Ki) in assay [2] was 1.8 nM; in assay [3] (selectivity panel), ≥ 20000 nM; in assay [4], ≥ 20000 nM; in assay [5] it was ≥ 17800 nM. For the same compound, the “inhibition of binding to H4R compared to H3R” value in assay [3] (statement in words) was “did not inhibit binding H4R”.

The term Ki denotes the dissociation constant of the complex between target and ligand, obtained from inhibition or displacement.

The record behind these values is patent publication US7902191B2, “Histamine H3 receptor antagonists, preparation and therapeutic uses” (Eli Lilly and Company, priority 2004, dated 2011).
